Source: patent publication US5830905A, “Compounds, compositions and methods for treatment of hepatitis C” (Viropharma Incorporated, priority 1996, dated 1998)

Target: viral helicase (Hepatitis C virus (isolate H77), UniProt P27958)
Test: Assay for Helicase Inhibition
Type: biochemical, HCV
Conditions: average of three test results; read-out: IC50 (concentration required to achieve a 50% inhibition of helicase activity)
Description: Anti-viral activity was measured on the basis of inhibition of helicase activity. The biological studies of the anti-viral activity of the compounds of the invention are described below.
Example 6 illustrates the efficacy of compounds of the invention in inhibiting the viral helicase activity.
Assay for Helicase Inhibition
The helicase inhibition assay was performed according to methodology of the type described, for example, in: Lain et al., Nucleic Acids Res. 18:7003-7006 (1991); Warrener et al., J. Virol. 69:1720-1726 (1995); Kim et al., Biochem. Biophys. Res. Comm. 214:160-166 (1995). The value given in Table 1 represent the average of three test results in which the concentrations of anti-viral compound required to achieve a 50% inhibition of helicase activity (IC50) were measured.

Chain of viral helicase (P27958 1027-1657): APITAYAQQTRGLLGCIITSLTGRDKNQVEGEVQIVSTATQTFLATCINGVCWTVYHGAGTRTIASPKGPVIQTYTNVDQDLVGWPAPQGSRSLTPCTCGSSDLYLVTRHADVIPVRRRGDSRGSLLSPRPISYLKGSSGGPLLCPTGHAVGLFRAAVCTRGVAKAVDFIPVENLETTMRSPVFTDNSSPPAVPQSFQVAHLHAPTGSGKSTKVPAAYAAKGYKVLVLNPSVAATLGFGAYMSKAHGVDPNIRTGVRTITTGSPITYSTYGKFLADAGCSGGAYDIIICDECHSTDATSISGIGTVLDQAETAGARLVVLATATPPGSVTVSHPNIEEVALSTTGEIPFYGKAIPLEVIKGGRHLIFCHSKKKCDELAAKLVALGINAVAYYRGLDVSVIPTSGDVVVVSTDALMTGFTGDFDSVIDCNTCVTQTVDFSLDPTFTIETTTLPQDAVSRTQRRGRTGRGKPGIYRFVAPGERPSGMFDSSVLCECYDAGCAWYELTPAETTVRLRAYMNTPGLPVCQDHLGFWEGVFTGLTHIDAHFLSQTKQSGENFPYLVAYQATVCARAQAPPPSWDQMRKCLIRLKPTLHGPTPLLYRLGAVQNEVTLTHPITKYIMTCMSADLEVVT

In the case of `c1cc(CN2CCC(C3=N[C@@H]4CCCC[C@H]4N3)CC2)ccc1CN1CCC(C2=N[C@@H]3CCCC[C@H]3N2)CC1` (relative stereo) [Example 3, 1,1'-[1,4-phenylenebis (methylene)]bis(4,4'-trans-(4,5,6,7,8,9-hexahydro)benzimidazoyl)piperidine], the IC50 is reported as 7 µM.
